Assay results as given in ChEMBL document CHEMBL1201862, “PubChem BioAssay data set” (2004).
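In this assay, cells in 96-well plates receive the compound at five concentrations for 48 hours. Endpoints are linearly interpolated between the surrounding concentrations. GI50 is the concentration that inhibits growth by half.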 Calls of active or inactive are those of the source. No stated cut-off is given here; in the data, active = GI50 up to about 1.1 µM and inactive = higher.

Columns and labels:
Experiment in all cases: growth of human tumour cells (NCI), 48 h
786-0 = system: 786-0
A549 = system: A549
COLO 205 = system: COLO 205
HOP-62 = system: HOP-62
HOP-92 = system: HOP-92
HT-29 = system: HT-29
LOX IMVI = system: LOX IMVI
M14 = system: M14
NCI-H460 = system: NCI-H460
NCI-H522 = system: NCI-H522
OVCAR-4 = system: OVCAR-4
RPMI-8226 = system: RPMI-8226
SF-295 = system: SF-295
SF-539 = system: SF-539
SK-MEL-5 = system: SK-MEL-5
SK-OV-3 = system: SK-OV-3
SNB-19 = system: SNB-19
SR = system: SR

Row | Structure (SMILES) | GI50 (786-0) | GI50 (A549) | GI50 (COLO 205) | GI50 (HOP-62) | GI50 (HOP-92) | GI50 (HT-29) | GI50 (LOX IMVI) | GI50 (M14) | GI50 (NCI-H460) | GI50 (NCI-H522) | GI50 (OVCAR-4) | GI50 (RPMI-8226) | GI50 (SF-295) | GI50 (SF-539) | GI50 (SK-MEL-5) | GI50 (SK-OV-3) | GI50 (SNB-19) | GI50 (SR)
1 | COc1ccccc1NC(=O)C1=C(C)NC(C)=C(C(=O)Nc2ccccc2OC)C1c1ccc(N(C)C)cc1 | 33.8 µM (inactive) | 42.6 µM (inactive) | 31 µM (inactive) | 22.3 µM (inactive) | 6.52 µM (inactive) | 45.4 µM (inactive) | 15.4 µM (inactive) | 22.5 µM (inactive) | 27.5 µM (inactive) | 17.6 µM (inactive) | 29.6 µM (inactive) | 16.6 µM (inactive) | 38 µM (inactive) | 37.5 µM (inactive) | 30.8 µM (inactive) | 38.7 µM (inactive) | 55.8 µM (inactive) | 
2 | C[C@]12CCC(=O)C=C1CC[C@@H]1[C@@H]2[C@@H](O)C[C@@]2(C)[C@H]1CC[C@]2(O)C(=O)COC(=O)CCC1CCCC1 [HYDROCORTISONE CYPIONATE] | > 100 µM (inactive) | > 100 µM (inactive) | > 100 µM (inactive) |  | > 100 µM (inactive) | > 100 µM (inactive) | > 100 µM (inactive) |  | > 100 µM (inactive) | > 100 µM (inactive) |  |  | > 100 µM (inactive) | > 100 µM (inactive) | > 100 µM (inactive) | 5.83 µM (inactive) | > 100 µM (inactive) | > 100 µM (inactive)
3 | c1cc2c3c(c1)c1cc4c(cc1c[n+]3CC2)OCO4 [ANHYDROLYCORINIUM CHLORIDE] |  | 1.15 µM (inactive) | 2.74 µM (inactive) | 3.83 µM (inactive) | 25.3 µM (inactive) | 7.4 µM (inactive) | 25.5 µM (inactive) |  | 3.73 µM (inactive) | 2.3 µM (inactive) | 0.383 µM (active) | 2.14 µM (inactive) | 0.802 µM (active) | 2.48 µM (inactive) | 3.79 µM (inactive) | 10.2 µM (inactive) | 1.17 µM (inactive) | 
4 | CCCCCCCCCCCCCCCCCCOCC(O)CO (centres undefined) [BATILOL] |  | 4.32 µM (inactive) | > 25 µM (inactive) | 14 µM (inactive) | 11.7 µM (inactive) | 14.5 µM (inactive) | > 21.9 µM (inactive) |  | > 20.2 µM (inactive) | 9.18 µM (inactive) | 21.9 µM (inactive) | 4.9 µM (inactive) | 18.6 µM (inactive) | > 25 µM (inactive) | 2.07 µM (inactive) | > 23.5 µM (inactive) | > 25 µM (inactive) | 
5 | NC(=O)N/N=C/C(/C=N/NC(N)=O)[N+](=O)[O-] | > 100 µM (inactive) | > 100 µM (inactive) | > 100 µM (inactive) | > 100 µM (inactive) | > 100 µM (inactive) | > 100 µM (inactive) | > 100 µM (inactive) | > 100 µM (inactive) |  | > 100 µM (inactive) | > 100 µM (inactive) | > 100 µM (inactive) | > 100 µM (inactive) | > 100 µM (inactive) |  | > 100 µM (inactive) | > 100 µM (inactive) | 
6 | COC(=O)C(=Cc1cc(OC)c(OC)c(OC)c1-c1cc2c(cc1C(C)=O)OCO2)C(=O)OC | 33.1 µM (inactive) | 55.6 µM (inactive) | 35.3 µM (inactive) | 36.8 µM (inactive) | 44 µM (inactive) | 40.6 µM (inactive) | 30.8 µM (inactive) |  | 62.8 µM (inactive) | 28.5 µM (inactive) |  | 35.5 µM (inactive) | 48.5 µM (inactive) | 43.8 µM (inactive) | 32.7 µM (inactive) | 71.9 µM (inactive) | 39 µM (inactive) | 50.4 µM (inactive)
7 | CCOC(=O)Oc1ccc2[nH]c3c(C)cc(N)c(C)c3c2c1 | > 100 µM (inactive) | > 100 µM (inactive) | > 100 µM (inactive) | > 100 µM (inactive) |  | > 100 µM (inactive) | > 100 µM (inactive) | 98.4 µM (inactive) | > 100 µM (inactive) | > 100 µM (inactive) | > 100 µM (inactive) | 72.3 µM (inactive) | > 100 µM (inactive) | > 100 µM (inactive) | > 100 µM (inactive) |  | > 100 µM (inactive) | > 100 µM (inactive)
8 | CCCNC1=C(C(=O)OCC)C(=O)CO1 | > 100 µM (inactive) | > 100 µM (inactive) |  |  | > 100 µM (inactive) | > 100 µM (inactive) | > 100 µM (inactive) | > 100 µM (inactive) | > 100 µM (inactive) |  | > 100 µM (inactive) | > 100 µM (inactive) | > 100 µM (inactive) | > 100 µM (inactive) | > 100 µM (inactive) |  | > 100 µM (inactive) | > 100 µM (inactive)
9 | CC(=O)Oc1cc2c(cc1OC(C)=O)OCC(c1ccc(C)cc1)C2 (centres undefined) |  | 16 µM (inactive) | 20.5 µM (inactive) | 20.5 µM (inactive) | 8.85 µM (inactive) | 29.2 µM (inactive) | 18.7 µM (inactive) |  | 15.1 µM (inactive) | 2.64 µM (inactive) | 13 µM (inactive) | 11.6 µM (inactive) | 28.7 µM (inactive) | 19.5 µM (inactive) | 6.12 µM (inactive) | 53.7 µM (inactive) | 31.4 µM (inactive) | 
10 | CCCN(CCCC(NC(C)=O)C(=O)NCc1ccccc1)C(=O)NCCCl (centres undefined) | > 100 µM (inactive) | > 100 µM (inactive) | > 100 µM (inactive) | > 100 µM (inactive) | > 100 µM (inactive) | > 100 µM (inactive) |  | > 100 µM (inactive) | > 100 µM (inactive) | > 100 µM (inactive) | > 100 µM (inactive) | > 100 µM (inactive) | > 100 µM (inactive) | > 100 µM (inactive) |  |  | > 100 µM (inactive) | > 100 µM (inactive)
11 | N=C(N)SCc1cccc([N+](=O)[O-])c1 |  | 39.7 µM (inactive) | 21.5 µM (inactive) | 26.7 µM (inactive) | 20.9 µM (inactive) | 30.1 µM (inactive) | 31.9 µM (inactive) |  | 34.1 µM (inactive) | 13.5 µM (inactive) | 30.3 µM (inactive) | 22.8 µM (inactive) | 38.9 µM (inactive) | 25.5 µM (inactive) | 32 µM (inactive) | > 57.1 µM (inactive) | > 10 µM (inactive) | 
12 | CC1(c2ccc[n+](Cc3ccccc3)c2)OCCO1 | > 100 µM (inactive) | > 100 µM (inactive) | > 100 µM (inactive) | > 100 µM (inactive) |  | > 100 µM (inactive) | > 100 µM (inactive) | > 100 µM (inactive) | > 100 µM (inactive) | > 100 µM (inactive) | > 100 µM (inactive) | > 100 µM (inactive) | > 100 µM (inactive) | > 100 µM (inactive) | > 100 µM (inactive) | > 100 µM (inactive) | > 100 µM (inactive) | > 100 µM (inactive)
13 | CN1CCC23c4ccccc4NC1C21CCN(C)C3Nc2ccccc21 |  | > 375 µM (inactive) | > 338 µM (inactive) | > 375 µM (inactive) | 94.6 µM (inactive) | > 375 µM (inactive) | > 375 µM (inactive) |  | > 375 µM (inactive) | > 375 µM (inactive) | > 375 µM (inactive) | 157 µM (inactive) | > 375 µM (inactive) | > 355 µM (inactive) | > 174 µM (inactive) | > 375 µM (inactive) | > 375 µM (inactive) | 
